Laboratory results: ChEMBL document CHEMBL1201862, “PubChem BioAssay data set” (2004)
Activity calls are given as the source filed them.

Experiments:
SUMO-activating enzyme = SUMO-activating enzyme (Homo sapiens, UniProt Q9UBT2); test: blockers of UBC9-mediated SUMO conjugation – biochemical, AlphaScreen, SUMOylation inhibitor project, confirmation (AID 2018); assay type: functional
Prothrombin = Prothrombin (Homo sapiens, UniProt P00734); test: Thrombin 1536 HTS Dose Response Confirmation. [Related pubchem assays: 1046 (Thrombin 1536 HTS; hits were confirmed in this assay)]; assay type: functional
Leucine aminopeptidase = molecular target: T1, Leucine aminopeptidase (Plasmodium falciparum 3D7, UniProt Q8IL11); test: P. falciparum M17LAP inhibitors, primary screen, biochemical, fluorogenic H-Leu-NHMec substrate, 1536-well (AID 1619); assay type: functional
T1 sequence (Q8IL11 whole entry): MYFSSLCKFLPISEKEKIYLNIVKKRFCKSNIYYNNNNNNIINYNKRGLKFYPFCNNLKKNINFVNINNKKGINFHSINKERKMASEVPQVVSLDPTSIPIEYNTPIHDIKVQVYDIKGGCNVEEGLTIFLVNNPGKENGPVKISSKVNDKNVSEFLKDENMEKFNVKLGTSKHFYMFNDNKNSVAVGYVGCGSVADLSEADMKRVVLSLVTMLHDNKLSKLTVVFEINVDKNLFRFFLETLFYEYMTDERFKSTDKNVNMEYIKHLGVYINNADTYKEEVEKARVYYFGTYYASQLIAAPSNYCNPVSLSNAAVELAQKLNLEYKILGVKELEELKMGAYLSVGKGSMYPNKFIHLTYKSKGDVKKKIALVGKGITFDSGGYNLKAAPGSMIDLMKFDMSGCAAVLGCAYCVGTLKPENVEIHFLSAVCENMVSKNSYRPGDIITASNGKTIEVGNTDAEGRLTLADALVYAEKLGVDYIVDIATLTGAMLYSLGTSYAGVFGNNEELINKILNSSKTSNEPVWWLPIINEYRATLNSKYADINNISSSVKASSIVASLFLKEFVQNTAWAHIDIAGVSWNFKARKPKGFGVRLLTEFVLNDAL

[1] = molecular target: DNA dC->dU-editing enzyme APOBEC-3G (Homo sapiens, UniProt Q9HC16); test: Dose Response confirmation of small molecule APOBEC3G DNA Deaminase Inhibitors via a fluorescence-based single-stranded DNA deaminase assay. [Related pubchem assays (depositor defined):AID493012, AID493028]; assay type: functional
[2] = Luminescence Cell-Based Dose Confirmation HTS to Identify Activators of 5'UTR Stem-Loop Driven Alpha-Synuclein mRNA Translation in H4 Neuroglioblastoma Cells. [Related pubchem assays: 1829 (Project Summary), 1814 (Primary HTS)]; assay type: functional
[3] = Luminescence Cell-Based Dose Response HTS to Identify Activators of Luciferase Translation or Activity in H4 […] Cells. [Related pubchem assays: 1829 (Project Summary), 1814 (Primary HTS)]; assay type: functional
H4 = test: Luminescence Cell-Based Dose Response HTS to Identify Activators of 5'UTR Stem-Loop Driven Prion Protein mRNA Translation in H4 Neuroglioblastoma Cells. [Related pubchem assays: 1829 (Project Summary), 1814 (Primary HTS)]; assay type: functional; conditions: Homo sapiens
[4] = molecular target: T2, Histone-lysine N-methyltransferase NSD2 (Homo sapiens, UniProt O96028); assay type: biochemical
T2 sequence (O96028 whole entry): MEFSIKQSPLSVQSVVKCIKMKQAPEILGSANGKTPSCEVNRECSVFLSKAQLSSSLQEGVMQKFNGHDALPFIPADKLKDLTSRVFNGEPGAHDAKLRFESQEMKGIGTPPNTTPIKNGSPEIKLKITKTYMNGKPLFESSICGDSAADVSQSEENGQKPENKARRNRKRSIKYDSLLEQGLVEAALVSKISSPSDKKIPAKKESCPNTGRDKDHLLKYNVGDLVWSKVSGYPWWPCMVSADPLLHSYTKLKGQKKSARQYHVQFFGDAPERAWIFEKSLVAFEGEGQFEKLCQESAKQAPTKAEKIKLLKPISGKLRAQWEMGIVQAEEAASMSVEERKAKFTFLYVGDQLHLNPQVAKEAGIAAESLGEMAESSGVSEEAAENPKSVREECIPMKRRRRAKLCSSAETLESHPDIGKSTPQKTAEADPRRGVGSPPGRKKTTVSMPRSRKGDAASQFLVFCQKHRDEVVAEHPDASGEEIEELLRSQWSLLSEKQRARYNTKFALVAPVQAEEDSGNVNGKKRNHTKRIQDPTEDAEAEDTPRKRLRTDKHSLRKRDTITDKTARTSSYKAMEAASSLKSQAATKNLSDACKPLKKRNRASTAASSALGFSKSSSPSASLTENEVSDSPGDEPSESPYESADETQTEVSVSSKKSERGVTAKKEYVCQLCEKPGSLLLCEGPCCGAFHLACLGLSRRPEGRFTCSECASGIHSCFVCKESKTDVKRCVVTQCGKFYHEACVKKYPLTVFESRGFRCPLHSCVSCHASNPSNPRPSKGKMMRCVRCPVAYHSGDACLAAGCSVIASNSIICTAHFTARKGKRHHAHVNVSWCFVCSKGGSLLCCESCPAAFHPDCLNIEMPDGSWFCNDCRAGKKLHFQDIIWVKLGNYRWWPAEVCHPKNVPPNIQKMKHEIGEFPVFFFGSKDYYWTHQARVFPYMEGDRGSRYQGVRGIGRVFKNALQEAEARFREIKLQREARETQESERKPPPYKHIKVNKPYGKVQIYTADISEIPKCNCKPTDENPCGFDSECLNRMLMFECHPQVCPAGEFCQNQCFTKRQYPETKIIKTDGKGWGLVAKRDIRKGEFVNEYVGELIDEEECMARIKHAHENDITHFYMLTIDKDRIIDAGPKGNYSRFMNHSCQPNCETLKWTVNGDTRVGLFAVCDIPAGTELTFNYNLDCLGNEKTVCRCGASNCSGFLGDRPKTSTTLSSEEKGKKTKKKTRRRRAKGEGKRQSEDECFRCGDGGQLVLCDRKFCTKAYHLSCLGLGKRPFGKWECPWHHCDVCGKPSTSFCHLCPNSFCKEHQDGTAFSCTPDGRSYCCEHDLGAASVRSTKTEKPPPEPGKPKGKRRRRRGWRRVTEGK

[5] = molecular target: T3, Corticotropin-releasing factor receptor 2/Corticotropin-releasing factor-binding protein (Homo sapiens, UniProt P24387+Q13324); test: Dose Response confirmation of uHTS hits for small molecule antagonists of the CRF-binding protein and CRF-R2 receptor complex.; assay type: functional; conditions: read-out: IC50_Mean
T3 sequence (Q13324 whole entry): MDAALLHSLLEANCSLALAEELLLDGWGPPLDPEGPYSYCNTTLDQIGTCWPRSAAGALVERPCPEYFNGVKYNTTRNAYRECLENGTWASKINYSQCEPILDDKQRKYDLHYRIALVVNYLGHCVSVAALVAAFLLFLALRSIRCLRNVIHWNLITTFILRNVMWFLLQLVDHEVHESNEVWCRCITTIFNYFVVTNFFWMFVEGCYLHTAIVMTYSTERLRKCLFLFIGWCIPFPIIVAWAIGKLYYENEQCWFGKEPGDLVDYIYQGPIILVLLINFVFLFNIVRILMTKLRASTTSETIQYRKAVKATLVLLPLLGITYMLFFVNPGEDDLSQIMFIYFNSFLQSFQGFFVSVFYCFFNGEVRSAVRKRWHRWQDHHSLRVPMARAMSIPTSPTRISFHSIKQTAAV
T3 sequence (P24387 whole entry): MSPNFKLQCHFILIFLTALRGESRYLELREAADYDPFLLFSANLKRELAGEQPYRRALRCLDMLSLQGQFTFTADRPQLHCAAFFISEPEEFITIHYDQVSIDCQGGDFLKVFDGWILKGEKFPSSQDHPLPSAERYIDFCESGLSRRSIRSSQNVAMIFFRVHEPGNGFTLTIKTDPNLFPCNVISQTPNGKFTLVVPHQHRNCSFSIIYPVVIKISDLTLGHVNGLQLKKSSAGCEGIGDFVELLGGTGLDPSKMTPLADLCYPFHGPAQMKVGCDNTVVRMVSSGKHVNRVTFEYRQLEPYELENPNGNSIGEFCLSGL

[6] = molecular target: T3, Corticotropin-releasing factor receptor 2/Corticotropin-releasing factor-binding protein; test: activators of CRF receptor 2 with binding protein – uHTS hits, confirmation (AID 602473); assay type: functional; conditions: read-out: EC50_Mean
[7] = HEK-293T cell viability reduction – luminescence, B-cell screen hits, cytotoxicity control for BCR NF-kB inhibitor project, dose response (AID 489021); assay type: functional, cell-based;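 also: HEK-293T cells carrying an NF-kB luciferase reporter; cells exposed to compound for about 14 hours before viability readout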
HEK293 = test: EBV LMP1 TES2 canonical NF-kB signalling blockers – cell-based, HEK293, luciferase, cherry-pick, dose response (AID 588343); assay type: functional; conditions: Homo sapiens
[8] = Trypanosoma cruzi growth suppression in host cells – NIH3T3 host cells, beta-gal luminescence, confirmation (AID 2044); assay type: functional, cell-based;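 also: intracellular parasites grown in NIH/3T3 mouse fibroblasts as host cells; luminescent beta-galactosidase reporter signal from transgenic T. cruzi replicating inside host cells; inhibitors lower the luminescence signal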
[9] = NIH3T3 cell viability loss – ATP luminescence, mouse fibroblasts, counter-screen, dose response (AID 2010); assay type: functional, cell-based;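 also: cells exposed to compound for about 90 hours before reading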
[10] = molecular target: Glucose-6-phosphate 1-dehydrogenase (Homo sapiens, UniProt P11413); test: inhibition of Homo sapiens G6PD, dose series – biochemical, fluorescence, selectivity assay for P. falciparum G6PD inhibitor project, dose response (AID 504792); assay type: functional
[11] = reduction of Shn3 3'UTR-driven luciferase in osteoblasts – cell-based, Clone20 osteoblasts, firefly luciferase, cherry-picked, dose response (AID 624132); assay type: functional;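 also: firefly luciferase luminescence from reporter carrying the Shn3 3'UTR in osteoblasts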
[12] = loss of viability in HepG2 cells – cell-based, CellTiter-Glo, cherry-picked, cytotoxicity control for Shn3 inhibitor project, dose response (AID 624134); assay type: functional
[13] = non-specific 3'UTR reporter inhibition in Clone20-Shn3RL – cell-based, Renilla luciferase, cherry-picked, counter-screen for Shn3 inhibitor project, dose response (AID 624133); assay type: functional
Fatty acid synthase [14] = molecular target: T4, Fatty acid synthase (Homo sapiens, UniProt P49327); test: inhibition of human FAS-TE enzyme activity – biochemical, endpoint fluorescence intensity, uHTS hits, dose response (AID 624327); assay type: functional;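 also: fluorescence from hydrolysis of an O-methyl fluorescein acyl ester substrate by the enzyme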
Fatty acid synthase [15] = molecular target: T4, Fatty acid synthase; test: inhibition of human FAS-TE enzyme activity – biochemical, kinetic fluorescence intensity, dose response (AID 624326); assay type: functional;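 also: rate of fluorescence rise from hydrolysis of a fluorogenic O-methyl fluorescein ester substrate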
[16] = viability of uninfected HEp-2 cells – cell-based, HTS, cytotoxicity control for RSV inhibitor project, dose response (AID 2410); assay type: functional; conditions: human respiratory syncytial virus
Cytochrome P450 2C9 = Cytochrome P450 2C9 (Homo sapiens, UniProt P11712)
Cytochrome P450 2C9, sequence (P11712 whole entry): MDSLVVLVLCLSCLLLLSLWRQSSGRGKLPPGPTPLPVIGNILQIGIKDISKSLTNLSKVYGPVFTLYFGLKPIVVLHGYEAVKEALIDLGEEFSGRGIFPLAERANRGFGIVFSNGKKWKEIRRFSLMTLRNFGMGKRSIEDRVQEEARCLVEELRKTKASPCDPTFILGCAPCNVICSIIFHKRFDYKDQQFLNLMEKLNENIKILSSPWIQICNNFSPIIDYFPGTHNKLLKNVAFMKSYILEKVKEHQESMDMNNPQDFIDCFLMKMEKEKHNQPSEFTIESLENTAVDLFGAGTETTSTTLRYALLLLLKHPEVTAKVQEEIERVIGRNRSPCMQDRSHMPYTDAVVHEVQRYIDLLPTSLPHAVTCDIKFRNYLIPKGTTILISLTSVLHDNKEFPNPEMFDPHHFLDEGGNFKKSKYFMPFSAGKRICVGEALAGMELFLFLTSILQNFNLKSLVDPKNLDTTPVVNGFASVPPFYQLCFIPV

SUMO-activating enzyme, sequence (Q9UBE0 whole entry): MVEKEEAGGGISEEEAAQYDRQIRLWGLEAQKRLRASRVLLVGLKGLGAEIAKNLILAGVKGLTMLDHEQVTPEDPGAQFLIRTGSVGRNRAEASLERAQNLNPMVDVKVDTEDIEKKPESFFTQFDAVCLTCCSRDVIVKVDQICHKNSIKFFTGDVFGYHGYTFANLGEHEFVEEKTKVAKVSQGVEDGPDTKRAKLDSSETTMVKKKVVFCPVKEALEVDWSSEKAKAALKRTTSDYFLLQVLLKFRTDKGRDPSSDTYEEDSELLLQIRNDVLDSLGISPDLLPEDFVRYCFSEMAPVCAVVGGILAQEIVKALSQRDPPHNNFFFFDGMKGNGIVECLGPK
SUMO-activating enzyme, sequence (Q9UBT2 whole entry): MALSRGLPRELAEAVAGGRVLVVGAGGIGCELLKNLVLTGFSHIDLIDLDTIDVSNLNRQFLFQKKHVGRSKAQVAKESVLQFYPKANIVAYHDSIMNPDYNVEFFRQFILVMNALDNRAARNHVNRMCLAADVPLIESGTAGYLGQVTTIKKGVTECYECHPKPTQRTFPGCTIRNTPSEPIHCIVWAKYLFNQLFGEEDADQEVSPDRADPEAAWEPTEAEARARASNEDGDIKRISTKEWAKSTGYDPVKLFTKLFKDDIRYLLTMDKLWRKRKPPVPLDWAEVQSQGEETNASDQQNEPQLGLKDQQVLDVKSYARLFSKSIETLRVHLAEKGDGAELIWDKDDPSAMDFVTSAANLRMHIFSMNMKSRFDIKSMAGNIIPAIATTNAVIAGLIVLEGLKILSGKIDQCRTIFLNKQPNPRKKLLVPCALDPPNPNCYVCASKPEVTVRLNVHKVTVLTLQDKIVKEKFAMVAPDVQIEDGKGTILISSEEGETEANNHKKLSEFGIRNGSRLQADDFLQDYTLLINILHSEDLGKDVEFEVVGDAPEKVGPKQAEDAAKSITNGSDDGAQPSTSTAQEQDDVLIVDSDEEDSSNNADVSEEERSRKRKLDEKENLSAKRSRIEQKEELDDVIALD
T4 sequence (P49327 whole entry): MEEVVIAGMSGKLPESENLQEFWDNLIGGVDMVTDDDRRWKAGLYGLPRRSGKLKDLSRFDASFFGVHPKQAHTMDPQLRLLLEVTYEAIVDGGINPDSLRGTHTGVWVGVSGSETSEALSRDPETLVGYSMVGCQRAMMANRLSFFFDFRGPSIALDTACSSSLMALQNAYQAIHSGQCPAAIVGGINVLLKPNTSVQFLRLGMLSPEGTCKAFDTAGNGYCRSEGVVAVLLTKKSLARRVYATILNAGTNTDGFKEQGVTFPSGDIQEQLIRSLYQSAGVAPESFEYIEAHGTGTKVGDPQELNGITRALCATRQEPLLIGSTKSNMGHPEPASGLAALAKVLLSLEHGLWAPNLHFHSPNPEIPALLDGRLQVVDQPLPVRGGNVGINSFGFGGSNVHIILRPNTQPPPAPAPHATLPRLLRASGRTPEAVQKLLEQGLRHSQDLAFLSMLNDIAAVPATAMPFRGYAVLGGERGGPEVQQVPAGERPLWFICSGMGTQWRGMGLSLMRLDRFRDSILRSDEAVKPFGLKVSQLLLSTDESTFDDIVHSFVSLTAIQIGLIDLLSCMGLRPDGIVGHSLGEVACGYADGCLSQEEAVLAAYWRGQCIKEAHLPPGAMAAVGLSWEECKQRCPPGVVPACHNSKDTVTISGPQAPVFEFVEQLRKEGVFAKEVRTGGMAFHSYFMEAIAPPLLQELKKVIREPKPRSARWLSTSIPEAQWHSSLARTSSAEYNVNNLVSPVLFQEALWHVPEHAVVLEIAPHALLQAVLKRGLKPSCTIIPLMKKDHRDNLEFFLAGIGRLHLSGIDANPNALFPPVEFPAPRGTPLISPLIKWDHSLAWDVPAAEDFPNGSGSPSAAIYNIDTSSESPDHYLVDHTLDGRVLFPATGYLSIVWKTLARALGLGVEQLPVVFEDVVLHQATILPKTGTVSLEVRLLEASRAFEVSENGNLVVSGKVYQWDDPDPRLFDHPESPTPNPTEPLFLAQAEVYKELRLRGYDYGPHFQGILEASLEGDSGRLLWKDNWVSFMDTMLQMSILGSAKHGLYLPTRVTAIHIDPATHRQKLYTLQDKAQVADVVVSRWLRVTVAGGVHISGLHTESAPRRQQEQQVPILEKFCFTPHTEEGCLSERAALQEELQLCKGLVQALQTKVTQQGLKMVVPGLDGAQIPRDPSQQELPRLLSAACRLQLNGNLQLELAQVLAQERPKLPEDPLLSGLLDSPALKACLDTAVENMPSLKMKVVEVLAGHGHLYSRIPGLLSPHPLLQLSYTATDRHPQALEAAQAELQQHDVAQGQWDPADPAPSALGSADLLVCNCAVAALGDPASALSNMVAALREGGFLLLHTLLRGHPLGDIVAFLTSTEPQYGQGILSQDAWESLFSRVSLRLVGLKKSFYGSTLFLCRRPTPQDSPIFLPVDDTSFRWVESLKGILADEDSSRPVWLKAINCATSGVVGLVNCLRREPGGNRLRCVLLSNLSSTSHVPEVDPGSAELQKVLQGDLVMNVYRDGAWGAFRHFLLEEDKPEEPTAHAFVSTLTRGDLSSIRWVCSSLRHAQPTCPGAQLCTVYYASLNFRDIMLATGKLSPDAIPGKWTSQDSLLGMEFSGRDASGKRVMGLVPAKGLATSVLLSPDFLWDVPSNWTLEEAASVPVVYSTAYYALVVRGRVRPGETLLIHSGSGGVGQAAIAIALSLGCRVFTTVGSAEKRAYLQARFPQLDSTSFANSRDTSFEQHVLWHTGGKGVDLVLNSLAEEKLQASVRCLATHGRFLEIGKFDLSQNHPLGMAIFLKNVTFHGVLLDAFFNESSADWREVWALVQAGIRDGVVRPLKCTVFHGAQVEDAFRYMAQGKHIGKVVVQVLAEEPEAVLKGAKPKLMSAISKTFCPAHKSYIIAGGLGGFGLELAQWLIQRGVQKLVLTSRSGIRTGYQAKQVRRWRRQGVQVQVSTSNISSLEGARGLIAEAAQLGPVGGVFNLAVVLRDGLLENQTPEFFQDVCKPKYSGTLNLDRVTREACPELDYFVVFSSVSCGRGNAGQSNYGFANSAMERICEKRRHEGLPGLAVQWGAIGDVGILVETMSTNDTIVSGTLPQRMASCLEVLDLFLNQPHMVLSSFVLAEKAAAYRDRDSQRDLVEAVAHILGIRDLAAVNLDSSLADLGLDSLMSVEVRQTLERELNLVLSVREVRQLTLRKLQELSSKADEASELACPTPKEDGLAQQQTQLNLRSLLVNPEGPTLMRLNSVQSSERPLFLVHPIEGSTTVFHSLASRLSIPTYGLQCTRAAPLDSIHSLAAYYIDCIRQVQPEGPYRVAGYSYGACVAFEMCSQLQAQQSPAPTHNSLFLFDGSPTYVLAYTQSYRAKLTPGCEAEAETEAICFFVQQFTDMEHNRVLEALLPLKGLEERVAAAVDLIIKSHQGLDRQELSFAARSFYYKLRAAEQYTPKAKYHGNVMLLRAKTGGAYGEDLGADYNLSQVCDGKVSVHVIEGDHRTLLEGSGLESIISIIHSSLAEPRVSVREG
Glucose-6-phosphate 1-dehydrogenase, sequence (P11413 whole entry): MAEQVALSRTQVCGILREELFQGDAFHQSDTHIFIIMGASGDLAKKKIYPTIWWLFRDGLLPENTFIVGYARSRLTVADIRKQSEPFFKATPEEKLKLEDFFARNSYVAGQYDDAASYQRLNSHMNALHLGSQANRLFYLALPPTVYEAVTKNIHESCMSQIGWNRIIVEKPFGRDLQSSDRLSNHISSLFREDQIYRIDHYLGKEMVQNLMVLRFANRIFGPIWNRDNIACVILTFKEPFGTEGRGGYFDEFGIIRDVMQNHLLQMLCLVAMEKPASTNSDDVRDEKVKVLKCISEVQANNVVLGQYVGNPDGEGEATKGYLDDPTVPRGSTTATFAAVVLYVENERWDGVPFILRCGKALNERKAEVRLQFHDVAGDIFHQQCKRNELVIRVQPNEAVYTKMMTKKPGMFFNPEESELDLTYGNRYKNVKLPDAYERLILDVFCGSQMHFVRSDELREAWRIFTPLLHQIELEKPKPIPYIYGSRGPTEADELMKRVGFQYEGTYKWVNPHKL
DNA dC->dU-editing enzyme APOBEC-3G, sequence (Q9HC16 whole entry): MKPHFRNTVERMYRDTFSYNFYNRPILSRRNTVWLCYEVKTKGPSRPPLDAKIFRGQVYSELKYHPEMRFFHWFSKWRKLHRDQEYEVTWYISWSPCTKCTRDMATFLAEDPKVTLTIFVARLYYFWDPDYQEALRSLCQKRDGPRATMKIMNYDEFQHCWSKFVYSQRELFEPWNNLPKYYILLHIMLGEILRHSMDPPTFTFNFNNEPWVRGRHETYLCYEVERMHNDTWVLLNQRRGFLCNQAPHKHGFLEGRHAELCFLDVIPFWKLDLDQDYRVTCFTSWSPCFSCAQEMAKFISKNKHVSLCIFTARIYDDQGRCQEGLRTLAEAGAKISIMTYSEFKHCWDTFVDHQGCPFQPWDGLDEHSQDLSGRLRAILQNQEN

SMILES: Cc1ccc2c(SCC(=O)NCc3ccco3)nc(-c3ccc(F)cc3)nc2c1
- IC50 (SUMO-activating enzyme): 50.1 µM (active)

SMILES: CC(C(=O)NCc1ccccn1)N1C(=O)c2ccccc2C1=O (stereo not drawn)
- IC50 (Prothrombin): > 50 µM (not active)

SMILES: O=C(COC(=O)CCc1ccccc1)Nc1ncc(Cl)cc1Cl
- IC50 (Prothrombin): 8.03 µM (active)

SMILES: Cc1sc(NC(=O)C2CCCCC2C(=O)O)c(C(N)=O)c1-c1ccccc1 (stereo not drawn)
- IC50 (Leucine aminopeptidase): 11 µM (active)

SMILES: O=C(NC1CCCCCC1)c1ccc[nH]c1=S
- IC50 [1]: 21.9 µM (active)

SMILES: CCOC(=O)c1cnn(-c2ncnc3sc4c(c23)CCC4)c1N
- EC50 [2]: 13.8 µM (active)
- EC50 [3]: 29.1 µM (active)
- EC50 (H4): 11.9 µM (active)
- IC50 (Prothrombin): > 50 µM (not active)

SMILES: CN(C)CCNc1ncnc2oc(-c3ccccc3)c(-c3ccccc3)c12
- AC50 [4]: > 20 µM (inactive)

SMILES: COc1ccccc1NC(=O)c1sc2nc(-c3ccco3)ccc2c1N
- IC50 (SUMO-activating enzyme): 45.2 µM (active)

SMILES: COc1ccnc(CSC(=N)Nc2ccc(F)cc2)c1
- IC50 [5]: > 47.1 µM (inactive)
- EC50 [6]: 32 µM (active)

SMILES: CCOC(=O)c1c(N)sc(C(=O)N2CCCCC2)c1C
- IC50 [5]: > 47.1 µM (inactive)
- EC50 [6]: > 53 µM (inactive)

SMILES: Cc1ccc(/C=C2\SC(=S)N(CCCC(=O)NC3CCCC3)C2=O)cc1
- IC50 [7]: > 80 µM (inactive)

SMILES: C=CCNC(=O)C(C#N)c1nc2ccccc2nc1N1CCN(Cc2ccccc2)CC1 (stereo not drawn)
- IC50 (Prothrombin): > 50 µM (inconclusive)

SMILES: CC(C)(C)c1ccc(C(=O)Nc2nnc(SCC(=O)NCC3CCCO3)s2)cc1 (stereo not drawn)
- AC50 (HEK293): 2.11 µM (active)

SMILES: CCCc1cc(=O)c2c(O)ccc(OC)c2o1
- AC50 (HEK293): > 350 µM (inactive)

SMILES: COc1ccc(CNc2nc(-c3cccnc3)nn2C(=O)CC(C)C)cc1
- IC50 (Prothrombin): 0.336 µM (active)

SMILES: CC/C(NCCCN(CC)CC)=C1/C(=O)NC(=O)N(C2CCCCC2)C1=O
- EC50 [8]: 0.171 µM (active)
- EC50 [9]: > 60 µM (not active)
- AC50 [4]: > 20 µM (inactive)

SMILES: Cc1c(CC(=O)NCCCC(=O)O)c(=O)oc2cc3c(cc12)CCC(C)(C)O3
- IC50 [7]: > 80 µM (inactive)

SMILES: Cc1c(O)ccc(-c2[nH]ncc2-c2nc3ccccc3s2)c1O
- IC50 (Leucine aminopeptidase): 6.97 µM (active)

SMILES: C=CCSc1nnc(NC(=O)c2ccc(Cl)nc2)s1
- IC50 [10]: > 80 µM (inactive)

SMILES: Cn1c(=O)n(C)c2cc(NS(=O)(=O)c3ccccc3)ccc21
- IC50 [7]: > 80 µM (inactive)

SMILES: Cc1cc(S(=O)(=O)c2ccc(Cl)cc2)nc(S(=O)(=O)c2ccc(Cl)cc2)c1C#N
- AC50 (HEK293): 9.23 µM (active)
- AC50 [11]: 2.83 µM (active)
- AC50 [12]: 25.9 µM (active)
- AC50 [13]: 21.2 µM (active)
- IC50 (Fatty acid synthase [14]): 7.57 µM (active)
- IC50 (Fatty acid synthase [15]): 10.4 µM (active)

SMILES: CCn1c2ccccc2c2cc(/C=N/n3cnnc3S)ccc21
- CC50 [16]: 25.1 µM (active)
- IC50 [10]: > 80 µM (inactive)
- AC50 (HEK293): 10.7 µM (active)
- AC50 (Cytochrome P450 2C9): 31.6 µM (inconclusive)

SMILES: O=C(O)c1cccc(NC(=S)N/N=C/c2c[nH]c3ccccc23)c1
- IC50 (Leucine aminopeptidase): 17.6 µM (active)
